# Data published in patent publication US20130165641A1, “6,11-BRIDGED BIARYL MACROLIDES” (Enanta Pharmaceuticals, Inc., priority 2007, published 2013).
# How the values were obtained:
# H. influenzae = test: MIC by micro-dilution method, H. influenzae isolates; format: cell-based, Haemophilus influenzae; settings: for MIC H. influenzae 33929: H. influenzae isolate 33929; for MIC H. influenzae 33929 / MIC H. influenzae 49247: examples of U.S. Pat. No. 6,878,691 for reference; for MIC H. influenzae 49247: H. influenzae isolate 49247
# Procedure: Susceptibility tests can be used to quantitatively measure the in vitro activity of an antimicrobial agent against a given bacterial isolate. Compounds are tested for in vitro antibacterial activity by a micro-dilution method. Minimal Inhibitory Concentration (MIC) is determined in 96 well microtiter plates utilizing the appropriate broth medium for the observed bacterial isolates. […] The diluted compounds (2 μl/well) are then transferred into sterile, uninoculated medium (0.2 mL) by use of a 96 fixed tip-pipetting station. The inoculum for each bacterial strain is standardized to approximately 5×10^5 CFU/mL by optical comparison to a 0.5 McFarland turbidity standard. The plates are inoculated with 10 μl/well of adjusted bacterial inoculum. The 96 well plates are covered and incubated at 35+/−2° C. for 24 hours in ambient air environment. Following incubation, plate wells are visually examined by Optical Density measurement for the presence of growth (turbidity). The lowest concentration of an antimicrobial agent at which no visible growth occurs is defined as the MIC.
# All in vitro testing follows the guidelines described in the Approved Standards M7-A7 protocol, published by the Clinical Laboratory Standards Institute (CLSI).
# MRSA = test: MIC by micro-dilution method, MRSA isolates; format: cell-based, Staphylococcus aureus; settings: MRSA isolate 33591; examples of U.S. Pat. No. 6,878,691 for reference
# Outline: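 CLSI M7-A7 broth microdilution with inoculum about 5×10^5 CFU/mL, in broth suited to each isolate. Plates incubated 24 h at 35±2 °C in ambient air. MIC is the lowest concentration without visible growth, judged by optical density.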
# [1] = Rat PK of amino acid prodrug after IV/PO administration; format: in vivo; settings: plasma, 10 mg/kg IV, prodrug itself, read-out: AUC0-∝
# [2] = Tissue accumulation of Compound 1 at the site of infection (infected skin tissue); settings: mouse, po, 50 mg/kg
# [3] = Animal model of infection of Compound 4: MPT, ED50; format: in vivo, mice; settings: Mus musculus, MPT (mouse protection test model)
# [4] = Animal model of infection of Compound 4: RLI, 2Log Red; format: in vivo, rats; settings: RLI (rat lung infection model), ED50
MIC H. influenzae 33929 (H. influenzae) [µg/mL],MIC H. influenzae 49247 (H. influenzae) [µg/mL],MIC MRSA 33591 (MRSA) [µg/mL],SMILES,other results
4,8,64,"CC[C@H]1OC(=O)[C@H](C)C(=O)[C@H](C)[C@@H](O[C@@H]2O[C@H](C)C[C@H](N(C)C)[C@H]2O)[C@@]2(C)C[C@@H](C)C(=NC(C)=O)[C@H](C)[C@@H](OC/C(=N\OCc3ccc(-c4nccs4)nc3)CO2)[C@]1(C)O [Compound 212, reference compound]",
4,8,>64,"CC[C@H]1OC(=O)[C@H](C)C(=O)[C@H](C)[C@@H](O[C@@H]2O[C@H](C)C[C@H](N(C)C)[C@H]2O)[C@@]2(C)C[C@@H](C)C(=NC(C)=O)[C@H](C)[C@@H](OC/C(=N\OCc3ccc(-c4cccs4)nc3)CO2)[C@]1(C)O [Compound 205, reference compound]",
32,32,>64,"CCNC(=O)c1cccc(-c2cc(CO/N=C3\CO[C@@H]4[C@@H](C)C(=NC(C)=O)[C@H](C)C[C@@](C)(OC3)[C@H](O[C@@H]3O[C@H](C)C[C@H](N(C)C)[C@H]3O)[C@@H](C)C(=O)[C@@H](C)C(=O)O[C@H](CC)[C@@]4(C)O)on2)n1 [Compound 195, reference compound]",
,,,CCC(=O)/N=C1\[C@H](C)C[C@@]2(C)OC/C(=N/OCc3ccc(-c4nc(NC(=O)[C@@H](N)CC(C)C)cs4)cn3)CO[C@H]([C@H]1C)[C@](C)(O)[C@@H](CC)OC(=O)[C@@](C)(F)C(=O)[C@H](C)[C@H]2O[C@@H]1O[C@H](C)C[C@H](N(C)C)[C@H]1O [Compounds 6],AUC [1]: 0.21 µg·h/mL
,,,CCC(=O)/N=C1\[C@H](C)C[C@@]2(C)OC/C(=N/OCc3ccc(-c4nc(N)cs4)cn3)CO[C@H]([C@H]1C)[C@](C)(O)[C@@H](CC)OC(=O)[C@@](C)(F)C(=O)[C@H](C)[C@H]2O[C@@H]1O[C@H](C)C[C@H](N(C)C)[C@H]1O [Compound 1],AUC(0-inf) ([2]; infected skin abscess): 617000 µg·h/mL; AUC(0-t) ([2]; infected skin abscess): 257000 µg·h/mL; Cmax ([2]; infected skin abscess): 9030 µg/mL; AUC(0-inf) ([2]; plasma): 24500 µg·h/mL; AUC(0-t) ([2]; plasma): 24400 µg·h/mL; Cmax ([2]; plasma): 5120 µg/mL; AUC(0-inf) ([2]; uninfected skin): 66600 µg·h/mL; AUC(0-t) ([2]; uninfected skin): 54600 µg·h/mL; Cmax ([2]; uninfected skin): 3800 µg/mL
4,8,64,"CC[C@H]1OC(=O)[C@@](C)(F)C(=O)[C@H](C)[C@@H](O[C@@H]2O[C@H](C)C[C@H](N(C)C)[C@H]2O)[C@@]2(C)C[C@@H](C)C(=NC(C)=O)[C@H](C)[C@@H](OC/C(=N\OCc3ccc(-n4cccn4)nc3)CO2)[C@]1(C)O [Compound 214, reference compound]",
,,,"CC[C@H]1OC(=O)[C@H](C)C(=O)[C@H](C)[C@@H](O[C@@H]2O[C@H](C)C[C@H](N(C)C)[C@H]2O)[C@](C)(OC)C[C@@H](C)C(=O)[C@H](C)[C@H]2N(CCCCn3cnc(-c4cccnc4)c3)C(=O)O[C@]12C [Telithromycin, telithromycin]",ED50 ([3]; S. aureus Smith): 11 mg/kg; ED50 ([3]; S. pneumoniae 7701): 10 mg/kg; 2Log Red ([4]; H. influenzae 1435): 49 mg/kg; 2Log Red ([4]; H. influenzae 3643): 78 mg/kg; 2Log Red ([4]; H. influenzae S1280): 56 mg/kg
8,8,64,"CC[C@H]1OC(=O)[C@H](C)C(=O)[C@H](C)[C@@H](O[C@@H]2O[C@H](C)C[C@H](N(C)C)[C@H]2O)[C@@]2(C)C[C@@H](C)C(=NC(C)=O)[C@H](C)[C@@H](OC/C(=N\OCc3ccc(-c4ncccn4)cc3)CO2)[C@]1(C)O [Compound 193, reference compound]",
8,8,32,"CC[C@H]1OC(=O)[C@@](C)(F)C(=O)[C@H](C)[C@@H](O[C@@H]2O[C@H](C)C[C@H](N(C)C)[C@H]2O)[C@@]2(C)C[C@@H](C)C(=NC(C)=O)[C@H](C)[C@@H](OC/C(=N\OCc3ccc(-c4cnccn4)s3)CO2)[C@]1(C)O [Compound 141, reference compound]",
4,4,32,"CC[C@H]1OC(=O)[C@H](C)C(=O)[C@H](C)[C@@H](O[C@@H]2O[C@H](C)C[C@H](N(C)C)[C@H]2O)[C@@]2(C)C[C@@H](C)C(=NC(C)=O)[C@H](C)[C@@H](OC/C(=N\OCc3ccc(-c4cccc(N)n4)nc3)CO2)[C@]1(C)O [Compound 227, reference compound]",
8,8,>64,"CC[C@H]1OC(=O)[C@H](C)C(=O)[C@H](C)[C@@H](O[C@@H]2O[C@H](C)C[C@H](N(C)C)[C@H]2O)[C@@]2(C)C[C@@H](C)C(=NC(C)=O)[C@H](C)[C@@H](OC/C(=N\OCc3cnc(-n4cccn4)c(F)c3)CO2)[C@]1(C)O [Compound 259, reference compound]",
4,4,32,"CC[C@H]1OC(=O)[C@@](C)(F)C(=O)[C@H](C)[C@@H](O[C@@H]2O[C@H](C)C[C@H](N(C)C)[C@H]2O)[C@@]2(C)C[C@@H](C)C(=NC(C)=O)[C@H](C)[C@@H](OC/C(=N\OCc3ccc(-c4csnn4)cc3)CO2)[C@]1(C)O [Compound 219, reference compound]",
4,4,4,"CC[C@H]1OC(=O)[C@@](C)(F)C(=O)[C@H](C)[C@@H](O[C@@H]2O[C@H](C)C[C@H](N(C)C)[C@H]2O)[C@@]2(C)C[C@@H](C)C(=NC(C)=O)[C@H](C)[C@@H](OC/C(=N\OCc3ccc(-c4cccc(N)n4)s3)CO2)[C@]1(C)O [Compound 173, reference compound]",
4,4,>64,"CC[C@H]1OC(=O)[C@H](C)C(=O)[C@H](C)[C@@H](O[C@@H]2O[C@H](C)C[C@H](N(C)C)[C@H]2O)[C@@]2(C)C[C@@H](C)C(=NC(C)=O)[C@H](C)[C@@H](OC/C(=N\OCc3ccc(-c4nnc(N)s4)nc3)CO2)[C@]1(C)O [Compound 234, reference compound]",
,,,CCC1OC(=O)C(C)C(=O)C(C)C(OC2OC(C)CC(N(C)C)C2O)C2(C)CC(C)C(=NC(C)=O)C(C)C(OCC(=NOCc3cnc(-c4cccc(N)n4)s3)CO2)C1(C)O (stereo not shown) [Example 37],MIC (H. influenzae; H. influenzae 33929): 4 µg/mL; MIC (H. influenzae; H. influenzae 49247): 2 µg/mL
,,,CCC(=O)N=C1C(C)CC2(C)OCC(=NOCc3cnc(-c4nsc(N)n4)cn3)COC(C1C)C(C)(O)C(CC)OC(=O)C(C)(F)C(=O)C(C)C2OC1OC(C)CC(N(C)C)C1O (stereo not shown) [Example 67],MIC (H. influenzae; H. influenzae 33929): 4 µg/mL; MIC (H. influenzae; H. influenzae 49247): 2 µg/mL
